Reference: ChEMBL document CHEMBL4219267, “Design and synthesis of plant cyclopeptide Astin C analogues and investigation of their immunosuppressive activity” (Bioorg Med Chem Lett, 2018)
Numbered stars: 1 amine (or outer) side, 2 acyl side, 3 side chain; on linkers, the order of the positions; unused ones are H or OH. Square brackets hold non-standard residues; d marks the D form. Peptide text beside a SMILES is read from it. β3hPhg = O=C(C[C@@H](N[*:1])c1ccccc1)[*:2]; ΔPro = O=C(O)[C@@H]1C=CCN1; Abu = CC[C@H](N)C(=O)O

Test: Immunosuppressive activity in C57BL/6 mouse lymph node cells after 24 hrs by MTT assay
Type: functional
Details: C57BL/6, 24 h
In the case of `CC[C@@H]1NC(=O)C[C@H](c2ccccc2)NC(=O)[C@H](CO)NC(=O)[C@H](CC)NC(=O)[C@H]([C@H](C)OC(=O)c2ccc[nH]2)NC1=O`, the IC50 is reported as > 100 µM.
For `CC[C@@H]1NC(=O)C[C@H](c2ccccc2)NC(=O)[C@H](CO)NC(=O)[C@H](CC)NC(=O)[C@H](CC(C)C)NC1=O` (cyclo([Abu]L[Abu]S[β3hPhg])), the IC50 was > 100 µM.
In the case of `CC[C@@H]1NC(=O)C[C@H](c2ccccc2)NC(=O)[C@H](CO)NC(=O)[C@H](CC)NC1=O`, the IC50 is reported as > 100 µM.
In the case of `CC[C@@H]1NC(=O)C[C@H](c2ccccc2)NC(=O)[C@H](CO)NC(=O)[C@H](CC)NC(=O)[C@H](Cc2ccc(O)cc2)NC1=O` (cyclo([Abu]S[β3hPhg][Abu]Y)), the IC50 is reported as > 100 µM.
In the case of `CC[C@@H]1NC(=O)C[C@H](c2ccccc2)NC(=O)[C@H](CC)NC(=O)C[C@H](c2ccccc2)NC(=O)[C@H](CO)NC1=O`, the IC50 is reported as 61.8 µM.
With `CC[C@@H]1NC(=O)C[C@H](c2ccccc2)NC(=O)[C@H](CO)NC(=O)[C@H](CC)NC(=O)[C@H](CCCNC(=N)N)NC1=O` (cyclo([Abu]R[Abu]S[β3hPhg])) the IC50 was > 100 µM.
For `CC[C@@H]1NC(=O)C[C@H](c2ccccc2)NC(=O)[C@H](CO)NC(=O)[C@H](CC)NC(=O)[C@H](Cc2c[nH]cn2)NC1=O` (cyclo([Abu]H[Abu]S[β3hPhg])), the IC50 was > 100 µM.
For `CC[C@@H]1NC(=O)C[C@H](c2ccccc2)NC(=O)[C@H](CO)NC(=O)[C@H](CC)NC(=O)[C@H](CCCCN)NC1=O` (cyclo([Abu]K[Abu]S[β3hPhg])), the IC50 was > 100 µM.
With `CC[C@@H]1NC(=O)C[C@H](c2ccccc2)NC(=O)[C@H](CO)NC(=O)[C@H](CC)NC(=O)[C@H](C(C)C)NC1=O` (cyclo([Abu]S[β3hPhg][Abu]V)) the IC50 was > 100 µM.
For `CC[C@@H]1NC(=O)C[C@H](c2ccccc2)NC(=O)[C@H](CO)NC(=O)[C@H](CC)NC(=O)[C@H](C)NC1=O` (cyclo(A[Abu]S[β3hPhg][Abu])), the IC50 was > 100 µM.
With `CC[C@@H]1NC(=O)C[C@H](c2ccccc2)NC(=O)[C@H](CO)NC(=O)[C@H](CC)NC(=O)[C@H]([C@H](C)O)NC1=O` the IC50 was > 100 µM.
With `CC[C@@H]1NC(=O)[C@@H]2[C@@H](O)[C@@H](O)CN2C(=O)[C@H](CC)NC(=O)C[C@H](c2ccccc2)NC(=O)[C@H](CO)NC1=O` the IC50 was > 100 µM.
With `CC[C@@H]1NC(=O)[C@@H]2[C@H](Cl)[C@H](Cl)CN2C(=O)[C@H](CC)NC(=O)C[C@H](c2ccccc2)NC(=O)[C@H](CO)NC1=O` the IC50 was 12.6 µM.
With `CC[C@@H]1NC(=O)C[C@H](c2ccccc2)NC(=O)[C@H](CO)NC(=O)[C@H](CC)NC(=O)[C@@H]([C@H](C)O)NC1=O` the IC50 was 51.8 µM.
In the case of `CCCCCCC[C@@H]1NC(=O)[C@H](CC)NC(=O)C[C@H](c2ccccc2)NC(=O)[C@H](CO)NC(=O)[C@H](CC)NC1=O`, the IC50 is reported as 65.2 µM.
With `CC[C@@H]1NC(=O)C[C@H](c2ccccc2)NC(=O)[C@H](CO)NC(=O)[C@H](CC)NC(=O)[C@H]([C@@H](C)O)NC1=O` the IC50 was > 100 µM.
In the case of `CC[C@@H]1NC(=O)C[C@H](c2ccccc2)NC(=O)[C@H](CO)NC(=O)[C@H](CC)NC(=O)[C@@H]([C@@H](C)O)NC1=O`, the IC50 is reported as 38.4 µM.
In the case of `CC[C@@H]1NC(=O)[C@@H]2C=CCN2C(=O)[C@H](CC)NC(=O)C[C@H](c2ccccc2)NC(=O)[C@H](CO)NC1=O` (cyclo([Abu]S[β3hPhg][Abu][ΔPro])), the IC50 is reported as > 100 µM.
